Assay results published in US20120316169A1, “2-ARYL-PROPIONAMIDE DERIVATIVES USEFUL AS BRADYKININ RECEPTOR ANTAGONISTS AND PHARMACEUTICAL COMPOSITIONS CONTAINING THEM” (DOMPÉ S.P.A., priority 2009, published 2012).

Target: T1, BKB1 receptors (Homo sapiens, UniProt P46663)
T1 construct: Human (IMR-90) lung fibroblast cells expressing native B1 receptors; endogenous in cells; host or cells: IMR-90 human lung fibroblasts, interleukin-treated to up-regulate BKB1 receptors
T1 sequence (P46663 1-353): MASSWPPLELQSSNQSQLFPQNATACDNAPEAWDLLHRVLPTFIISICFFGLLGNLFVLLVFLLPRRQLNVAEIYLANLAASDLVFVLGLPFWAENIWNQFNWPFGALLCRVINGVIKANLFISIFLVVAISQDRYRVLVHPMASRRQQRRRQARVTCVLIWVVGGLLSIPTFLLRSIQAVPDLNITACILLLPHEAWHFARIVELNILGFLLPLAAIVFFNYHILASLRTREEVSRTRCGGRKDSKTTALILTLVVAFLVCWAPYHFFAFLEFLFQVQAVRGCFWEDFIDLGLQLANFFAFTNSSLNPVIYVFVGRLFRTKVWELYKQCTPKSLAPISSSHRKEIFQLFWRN
Test: Calcium mobilization assay (FLIPR), B1 receptors in IMR-90 cells
Assay type: cell-based
Conditions: Human IMR-90 lung fibroblast cells, up-regulated BKB1 receptors, agonist desArg10-kallidin (DAKD) 2 to 8 nM, calcium-dependent fluorescence
Experimental: Calcium mobilization assay (FLIPR)—Human (IMR-90) lung fibroblast cells expressing native B1 receptors were harvested by trypsinization and seeded into black wall/clear bottom 96-well plates (Costar 3904; Corning Life Sciences, Acton, Mass.) at approximately 13,000 cells/well. After 1 day incubation, cells were treated with […] (0.35 ng/ml) in 10% FBS/MEM for 2 h to up-regulate BKB1 receptors. Induced cells were loaded with fluorescent calcium indicator by incubation with 2.3 μM Fluo-4/acetoxymethyl ester (Invitrogen) at 37° C. for 1.5 h in the presence of an anion transport inhibitor (2.5 mM probenecid in 1% FBS/MEM). Extracellular dye was removed by washing with assay buffer (2.5 mM probenecid, 0.1% BSA in 20 mM HEPES/HBSS without bicarbonate or phenol red, pH 7.5) and cell plates were kept in the dark until used. Test compounds were assayed at eight concentrations in triplicate. Addition of test compounds to the cell plate and incubation for 5 min at 35° C., followed by the addition of 2 to 8 nM final BK1 agonist desArg^10-kallidin (DAKD, 3×EC50) was carried out in the fluorimetric imaging plate reader (FLIPR; Molecular Devices) while continuously monitoring calcium-dependent fluorescence.

Row | IC50 | SMILES
1 | 3.24 µM | CC(C(=O)NCCNCc1ccccc1)c1ccc(Oc2cccc3ccccc23)cc1 (centres unmarked) [Compound 61, N-[2-(benzylamino)ethyl]-2-[4-(naphthalen-1-yloxy)phenyl]propanamide]
2 | 5.89 µM | COc1cc(Nc2cccc(C(C)C(=O)NCC(C)(C)N)c2)cc(C(F)(F)F)c1 (centres unmarked) [Compound 58, N-(2-amino-2-methylpropyl)-2-[3-{[3-methoxy-5-(trifluoromethyl)phenyl]amino}phenyl]propanamide]
3 | 1.35 µM | CC(C(N)=O)c1ccc(Nc2ccc3c(c2)OC(F)(F)O3)cc1 (centres unmarked) [Compound 79, 2-{4-[(2,2-difluoro-1,3-benzodioxol-5-yl)amino]phenyl}propanamide]
4 | 3.09 µM | COc1cccc(Nc2ccc(C(C)C(=O)Nc3cc(C)nn3C)cc2)c1OC (centres unmarked) [Compound 25, 2-{4-[(2,3-dimethoxyphenyl)amino]phenyl}-N-(1,3-dimethyl-1H-pyrazol-5-yl)propanamide]
5 | 8.51 µM | COc1cc(Nc2cccc(C(C)C(=O)NNC(=O)c3ccco3)c2)cc(C(F)(F)F)c1 (centres unmarked) [Compound 54, N′-{2-[3-(3-methoxy-5-(trifluoromethyl)phenylamino)phenyl]propanoyl}furan-2-carbohydrazide]
6 | 3.8 µM | CC(C(=O)NCCCN(C)C)c1ccc(Oc2cccc3ccccc23)cc1 (centres unmarked) [Compound 62, N-[3-(dimethylamino)propyl]-2-[4-(naphthalen-1-yloxy)phenyl]propanamide]
7 | 8.32 µM | Cc1ccc(OCC(O)CNC(=O)C(C)c2ccc(Nc3nc(C(F)(F)F)co3)cc2)cc1C (centres unmarked) [Compound 32, N-[2-hydroxy-3-(3,4-dimethylphenoxy)propyl]-2-(4-{[4-(trifluoromethyl)-1,3-oxazol-2-yl]amino}phenyl)propanamide]
8 | 7.76 µM | CC(C(=O)NCC(=O)NC(C)(C)C)c1ccc(Nc2nc(C(F)(F)F)co2)cc1 (centres unmarked) [Compound 30, N-[2-(tert-butylamino)-2-oxoethyl]-2-(4-{[4-(trifluoromethyl)-1,3-oxazol-2-yl]amino}phenyl)propanamide]
9 | 13.2 µM | CC(F)(C(=O)NCCNc1ccccn1)c1ccc(OS(=O)(=O)C(F)(F)F)cc1 (centres unmarked) [Compound 3, 4-(2-fluoro-1-oxo-1-{[2-(pyridin-2-ylamino)ethyl]amino}propan-2-yl)phenyl trifluoromethanesulfonate]
10 | 2.82 µM | CC(C(=O)Nc1ccncc1)c1cccc(Oc2ccc3ccccc3c2)c1 (centres unmarked) [Compound 73, 2-[3-(naphthalen-2-yloxy)phenyl]-N-(pyridin-4-yl)propanamide]
11 | 11.5 µM | CC(C)(C(=O)NCCc1ccncc1)c1ccc(OS(=O)(=O)C(F)(F)F)cc1 [Compound 7, 4-(2-methyl-1-oxo-1-{[2-(pyridin-4-yl)ethyl]amino}propan-2-yl)phenyl trifluoromethanesulfonate]
12 | 4.27 µM | CC(F)(C(=O)Nc1ccsc1S(N)(=O)=O)c1cccc(Nc2nc(C(F)(F)F)cs2)c1 (centres unmarked) [Compound 4, 2-fluoro-N-(2-sulfamoylthiophen-3-yl)-2-(3-{[4-(trifluoromethyl)-1,3-thiazol-2-yl]amino}phenyl)propanamide]
13 | 5.75 µM | COc1cccc(Nc2ccc(C(C)C(=O)Nc3ccncn3)cc2)c1OC (centres unmarked) [Compound 26, 2-{4-[(2,3-dimethoxyphenyl)amino]phenyl}-N-(pyrimidin-4-yl)propanamide]
14 | 4.07 µM | CC(C(=O)NCCN1CCOCC1)c1ccc(Oc2cccc3ccccc23)cc1 (centres unmarked) [Compound 67, 2-[4-(naphthalen-1-yloxy)phenyl]-N-[2-(morpholin-4-yl)ethyl]propanamide]
15 | 7.76 µM | COc1cccc(Nc2ccc(C(C)C(=O)NC3CCN(Cc4ccccc4)CC3)cc2)c1 (centres unmarked) [Compound 9, 2-{4-[(3-methoxyphenyl)amino]phenyl}-N-(1-benzylpiperidin-4-yl)propanamide]
16 | 6.92 µM | COc1cc(Nc2cccc(C(C)C(=O)NC3CCCCC3N)c2)cc(C(F)(F)F)c1 (centres unmarked) [Compound 59, N-(2-aminocyclohexyl)-2-[3-{[3-methoxy-5-(trifluoromethyl)phenyl]amino}phenyl]propanamide]
17 | 3.63 µM | COc1cccc(CN(C)CCCNC(=O)C(C)c2ccc(OS(=O)(=O)C(F)(F)F)cc2)c1 (centres unmarked) [Compound 50, 4-(1-{[3-[3-methoxybenzyl(methyl)amino]propyl}amino-1-oxopropan-2-yl)phenyl trifluoromethanesulfonate]

Row | IC50 | SMILES
18 | 7.76 µM | CC(C(=O)NCCN1CCCC1)c1cccc(Oc2cccc(OC(F)(F)F)c2)c1 (centres unmarked) [Compound 19, N-[(2-pyrrolidin-1-yl)ethyl]-2-{3-[3-(trifluoromethoxy)phenoxy]phenyl}propanamide]
19 | 6.61 µM | CC1CC(C)CN(CCNC(=O)C(C)c2ccc(Nc3nc(C(F)(F)F)cs3)cc2)C1 (centres unmarked) [Compound 42, N-[2-(3,5-dimethylpiperidin-1-yl)ethyl]-2-(4-{[4-(trifluoromethyl)-1,3-thiazol-2-yl]amino}phenyl)propanamide]
20 | 20 µM | CC(C)Cc1ccc(C(C)C(=O)NC(N)=O)cc1 (centres unmarked) [Compound 38, N-carbamoyl-2-[4-(2-methylpropyl)phenyl]propanamide]
21 | 7.41 µM | Cc1cc(NC(=O)C(C)c2cccc(C(=O)c3cccs3)c2)n(C)n1 (centres unmarked) [Compound 24, N-(1,3-dimethyl-1H-pyrazol-5-yl)-2-[3-(thiophen-2-ylcarbonyl)phenyl]propanamide]
22 | 0.708 µM | CC(C(=O)NCCC1CCN(c2ccncc2)CC1)c1ccc(Nc2ccccc2-n2cccc2)cc1 (centres unmarked) [Compound 70, N-{2-[1-(pyridin-4-yl)piperidin-4-yl]ethyl}-2-(4-{[2-(1H-pyrrol-1-yl)phenyl]amino}phenyl)propanamide]
23 | 1.2 µM | CC(C(=O)Nc1cnccn1)c1ccc(Oc2ccc(F)cc2)cc1 (centres unmarked) [Compound 75, 2-[4-(4-fluorophenoxy)phenyl]-N-(pyrazin-2-yl)propanamide]
24 | 8.91 µM | CC(C(N)=O)c1cccc(Nc2ccc3c(c2)OC(F)(F)O3)c1 (centres unmarked) [Compound 76, 2-{3-[(2,2-difluoro-1,3-benzodioxol-5-yl)amino]phenyl}propanamide]
25 | 8.13 µM | COc1cccc(CN(C)CCNC(=O)C(C)c2ccc(NS(=O)(=O)C(C)C)cc2)c1 (centres unmarked) [Compound 22]
26 | 8.71 µM | CC(F)(C(=O)Nc1ccccc1S(N)(=O)=O)c1cccc(Nc2nc(C(F)(F)F)cs2)c1 (centres unmarked) [Compound 5, 2-fluoro-N-(2-sulfamoylphenyl)-2-(3-{[4-(trifluoromethyl)-1,3-thiazol-2-yl]amino}phenyl)propanamide]
27 | 10 µM | CC(C(=O)Nc1ccccc1)c1cccc(C(=O)c2ccccc2)c1 (centres unmarked) [Compound 35, N-phenyl-2-[3-(phenylcarbonyl)phenyl]propanamide]
28 | 8.71 µM | CC(C(=O)Nc1cc(Cl)cc(Cl)c1S(N)(=O)=O)c1ccc(OS(=O)(=O)c2ccccc2Cl)cc1 (centres unmarked) [Compound 81, 4-{1-[(3,5-dichloro-2-sulfamoylphenyl)amino]-1-oxopropan-2-yl}phenyl 2-chlorobenzenesulfonate]
29 | 8.91 µM | CCOCCCNC(=O)C(C)c1cccc(Nc2cc(OC)cc(C(F)(F)F)c2)c1 (centres unmarked) [Compound 52, 2-(3-{[3-methoxy-5-(trifluoromethyl)phenyl]amino}phenyl)-N-(3-ethoxypropyl)propanamide]
30 | 8.91 µM | CC(C(=O)Nn1cnnc1)c1ccc(Oc2cccc3ccccc23)cc1 (centres unmarked) [Compound 64, 2-[4-(naphthalen-1-yloxy)phenyl]-N-(4H-1,2,4-triazol-4-yl)propanamide]
31 | 11.5 µM | Cc1ccc(OCC(O)CNC(=O)C(C)c2ccc(OS(=O)(=O)C(F)(F)F)cc2)cc1C (centres unmarked) [Compound 51, 4-[3-(3,4-dimethylphenoxy)-2-hydroxypropyl]amino-1-oxopropan-2-yl)phenyl trifluoromethanesulfonate]
32 | 3.89 µM | CC(C(=O)NCCCNC1CCCCC1)c1ccc(Oc2cccc3ccccc23)cc1 (centres unmarked) [Compound 63, N-[3-(cyclohexylamino)propyl]-2-[4-(naphthalen-1-yloxy)phenyl]propanamide]
33 | 3.47 µM | COc1cc(Nc2cccc(C(C)C(=O)NCCNCc3ccccc3)c2)cc(C(F)(F)F)c1 (centres unmarked) [Compound 57, 2-{3-[(3-methoxy-5-(trifluoromethyl)phenyl)amino]phenyl}-N-[2-(benzylamino)ethyl]propanamide]
34 | 5.25 µM | COc1cc(Nc2cccc(C(C)C(=O)Nc3ccncn3)c2)cc(C(F)(F)F)c1 (centres unmarked) [Compound 55, 2-(3-{[3-methoxy-5-(trifluoromethyl)phenyl]amino}phenyl)-N-(pyrimidin-4-yl)propanamide]

Row | SMILES | IC50
35 | COC(=O)C(CNC(=O)OC(C)(C)C)NC(=O)C(C)c1ccc(Oc2cccc3ccccc23)cc1 (centres unmarked) [Compound 60, methyl 3-[(tert-butoxycarbonyl)amino]-2-[4-(naphthalen-1-yloxyphenyl)propanoyl]aminopropanoate] | 10.5 µM
